Reference: publication PMC12430303, “Design and Evaluation of Indole-Based Schiff Bases as α-Glucosidase Inhibitors: CNN-Enhanced Docking, MD Simulations, ADMET Profiling, and SAR Analysis” (Molecules, 2025)

Key:
[1] = system: α-Glucosidase from Saccharomyces cerevisiae; experiment: α-glucosidase inhibition assay (pNPG substrate); type: biochemical; conditions: for % inhibition R1: replicate 1; for % inhibition R3: replicate 3; for % Inhibition: fixed concentration of 100 µM, mean of triplicate (± SD); for Observation (activity level, Table S9) / Observation (inhibition level, Table S7): words, based on % inhibition at 100 µM; for IC50: dose-response, mean ± SD
Description: The α-glucosidase inhibitory activity of 4a–j was evaluated using a standard enzymatic assay. α-Glucosidase from Saccharomyces cerevisiae was employed as the enzyme source, and p-nitrophenyl-α-D-glucopyranoside (pNPG) served as the substrate. The assay was conducted in a 96-well microplate format at 37 °C in 50 mM phosphate buffer (pH 6.8). Briefly, 10 µL of the test compound (dissolved in DMSO) at various concentrations was mixed with 20 µL of the enzyme solution (1 U/mL) and 50 µL of phosphate buffer. The reaction was initiated by adding 20 µL of pNPG (5 mM), and the mixture was incubated for 30 min. The reaction was terminated by adding 50 µL of 0.1 M Na2CO3, and the absorbance of the released p-nitrophenol was measured at […] using a microplate reader. […] All experiments were performed in triplicate, and the results were expressed as mean ± standard deviation (SD). Statistical significance was evaluated using one-way ANOVA followed by Tukey’s post hoc test.

α-glucosidase = molecular target: α-glucosidase; parameters: method as in PMID 26398141; conditions: cited from earlier work

| SMILES | % inhibition R1 ([1]; 100 µM) [%] | % inhibition R3 ([1]; 100 µM) [%] | % Inhibition [1] [%] | Observation (activity level, Table S9) [1] | Observation (inhibition level, Table S7) [1] | % Inhibition ([1]; 100 µM) [%] | IC50 [1] [µM] | IC50 (α-glucosidase) [µM] |
| --- | --- | --- | --- | --- | --- | --- | --- | --- |
| COc1ccc2[nH]c(C(=O)N/N=C/c3nccs3)cc2c1 [4a, (E)-5-Methoxy-N’-(thiazol-2-ylmethylene)-1H-indole-2-carbohydrazide] | 41.141 | 33.393 | 31.75 ± 8.42 | Low activity | Low inhibition |  |  |  |
| COc1ccc2[nH]c(C(=O)N/N=C/c3cccnc3)cc2c1 [4b, (E)-5-Methoxy-N’-(pyridin-3-ylmethylene)-1H-indole-2-carbohydrazide] | 34.129 | 27.265 |  | Low activity | Low inhibition | 25.37 |  |  |
| COc1ccc2[nH]c(C(=O)N/N=C/c3ccc(O)cc3)cc2c1 [4c, (E)-N’-(4-Hydroxybenzylidene)-5-methoxy-1H-indole-2-carbohydrazide] | 39.907 | 37.768 | 32.51 ± 8.99 | Moderate activity | Moderate inhibition |  |  |  |
| COc1ccc2[nH]c(C(=O)N/N=C/c3ccc(O)c([N+](=O)[O-])c3)cc2c1 [4d, (E)-N’-(4-Hydroxy-3-nitrobenzylidene)-5-methoxy-1H-indole-2-carbohydrazide] | 37.425 | 28.540 | 27.97 ± 7.96 | Low activity | Low inhibition |  |  |  |
| COc1ccc(/C=N/NC(=O)c2cc3cc(OC)ccc3[nH]2)c(O)c1 [4e, (E)-N’-(2-Hydroxy-4-methoxybenzylidene)-5-methoxy-1H-indole-2-carbohydrazide] | 87.826 | 81.926 | 82.21 ± 4.47 | High activity | Good inhibition |  | 16.42 ± 0.08 |  |
| COc1ccc2[nH]c(C(=O)N/N=C/c3ccccc3F)cc2c1 [4f, (E)-N’-(2-Fluorobenzylidene)-5-methoxy-1H-indole-2-carbohydrazide] | 54.885 | 51.513 | 50.65 ± 3.86 | Moderate activity | Moderate inhibition |  |  |  |
| COc1ccc2[nH]c(C(=O)N/N=C/c3cccc(Br)c3)cc2c1 [4g, (E)-N’-(3-Bromobenzylidene)-5-methoxy-1H-indole-2-carbohydrazide] | 92.817 | 90.041 | 91.06 ± 1.25 | High activity | High inhibition |  | 10.89 ± 0.08 |  |
| COc1ccc2[nH]c(C(=O)N/N=C/c3ccc([N+](=O)[O-])cc3)cc2c1 [4h, (E)-5-Methoxy-N’-(4-nitrobenzylidene)-1H-indole-2-carbohydrazide] | 90.888 | 88.949 | 89.11 ± 1.39 | High activity | High inhibition |  | 14.5 ± 0.76 |  |
| COc1ccc2[nH]c(C(=O)N/N=C/c3ccc4ccccc4c3)cc2c1 [4i, (E)-5-Methoxy-N’-(naphthalen-2-ylmethylene)-1H-indole-2-carbohydrazide] | 84.106 | 84.052 | 82.73 ± 1.90 | High activity | Good inhibition |  | 19.5 ± 1.37 |  |
| COc1ccc2[nH]c(C(=O)N/N=C/c3ccccc3)cc2c1 [4j, (E)-N’-Benzylidene-5-methoxy-1H-indole-2-carbohydrazide] | 56.471 | 49.039 | 53.23 ± 3.11 | Moderate activity | Moderate inhibition |  |  |  |
| O=C(N/N=C/c1cc(O)c(O)c(O)c1)c1cc2ccccc2[nH]1 [(E)-N’-(3,4,5-Trihydroxybenzylidene)-1H-indole-2-carbohydrazide] |  |  |  |  |  |  |  | 2.3 |
| C[C@H]1O[C@H](O[C@H]2[C@H](O)[C@@H](O)[C@@H](O[C@H]3[C@H](O)[C@@H](O)C(O)O[C@@H]3CO)O[C@@H]2CO)[C@H](O)[C@@H](O)[C@@H]1N[C@H]1C=C(CO)[C@@H](O)[C@H](O)[C@H]1O (stereo partly shown) [Acarbose, acarbose, reference compound] | 84.457 | 85.609 | 84.66 ± 0.71 |  |  |  |  |  |
